Molecular target: human MGL from HeLa cells (Homo sapiens (Human), UniProt Q99685)
Test: MGL in vitro activity assay ([glycerol-1,3-3H]-oleoyl glycerol hydrolysis, activated carbon filtration)
Assay type: biochemical
Settings: 300 nM [Glycerol-1,3-3H]-oleoyl glycerol, one hour
In short: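 Endogenous human MGL in HeLa cells/homogenates incubated 1 h with test compounds and 300 nM [glycerol-1,3-3H]-oleoyl glycerol. Released 3H-glycerol passing an activated carbon filter counted as activity; screening at 10 μM compound, top IC50 concentration set empirically.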

human MGL from HeLa cells, sequence (Q99685 whole entry): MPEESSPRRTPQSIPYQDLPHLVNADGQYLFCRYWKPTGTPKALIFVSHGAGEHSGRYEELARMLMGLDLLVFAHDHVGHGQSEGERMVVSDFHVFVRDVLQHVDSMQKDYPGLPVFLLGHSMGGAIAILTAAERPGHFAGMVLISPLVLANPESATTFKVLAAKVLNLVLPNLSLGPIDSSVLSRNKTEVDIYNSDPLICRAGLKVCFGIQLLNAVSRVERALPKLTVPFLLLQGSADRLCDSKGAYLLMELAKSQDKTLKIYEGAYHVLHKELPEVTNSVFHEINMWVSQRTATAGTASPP

Structure (SMILES)	IC50
Cn1ncc2cc(F)c(CC3CC4(C3)CN(C(=O)[C@H]3C[C@@](C)(O)C3)C4)cc21 [Example 304, (6-((5-Fluoro-1-methyl-1H-indazol-6-yl)methyl)-2-azaspiro[3.3]heptan-2-yl)((1s,3s)-3-hydroxy-3-methylcyclobutyl)methanone]	0.013 µM
Cn1ncc2ccc(CC3CC4(C3)CN(C(=O)[C@H]3C[C@@](C)(O)C3)C4)c(F)c21 [Example 305, (6-((7-Fluoro-1-methyl-1H-indazol-6-yl)methyl)-2-azaspiro[3.3]heptan-2-yl)((1s,3s)-3-hydroxy-3-methylcyclobutyl)methanone]	0.028 µM
CC(C)n1ncc2ccc(CC3CC4(C3)CN(C(=O)[C@H]3C[C@@](C)(O)C3)C4)cc21 [Example 306, ((1s,3s)-3-Hydroxy-3-methylcyclobutyl)(6-((1-isopropyl-1H-indazol-6-yl)methyl)-2-azaspiro[3.3]heptan-2-yl)methanone]	0.023 µM
C[C@]1(O)C[C@@H](C(=O)N2CC3(CC(Cc4ccc5cnn(CC(F)(F)F)c5c4)C3)C2)C1 [Example 307, ((1s,3s)-3-Hydroxy-3-methylcyclobutyl)(6-((1-(2,2,2-trifluoroethyl)-1H-indazol-6-yl)methyl)-2-azaspiro[3.3]heptan-2-yl)methanone]	0.431 µM
CC(C)n1cc2ccc(CC3CC4(C3)CN(C(=O)[C@H]3C[C@@](C)(O)C3)C4)cc2n1 [Example 308, ((1s,3s)-3-Hydroxy-3-methylcyclobutyl)(6-((2-isopropyl-2H-indazol-6-yl)methyl)-2-azaspiro[3.3]heptan-2-yl)methanone]	0.117 µM
Cc1nc(OC2CC3(C2)CN(C(=O)[C@H]2C[C@@](C)(O)C2)C3)ccc1C(F)(F)F [Example 309, ((1s,3s)-3-Hydroxy-3-methylcyclobutyl)(6-((6-methyl-5-(trifluoromethyl)pyridin-2-yl)oxy)-2-azaspiro[3.3]heptan-2-yl)methanone]	0.13 µM
Cn1ccc2ccc(C(F)(F)C3CC4(C3)CN(C(=O)[C@H]3C[C@@](C)(O)C3)C4)nc21 [Example 317, (6-(Difluoro(1-methyl-1H-pyrrolo[2,3-b]pyridin-6-yl)methyl)-2-azaspiro[3.3]heptan-2-yl)((1s,3s)-3-hydroxy-3-methylcyclobutyl)methanone]	0.069 µM
C[C@]1(O)C[C@@H](C(=O)N2CC3(CCC(F)(c4ccccc4)CC3)C2)C1 [Example 340, (7-Fluoro-7-phenyl-2-azaspiro[3.5]nonan-2-yl)((1s,3s)-3-hydroxy-3-methylcyclobutyl)methanone]	0.288 µM
Cn1ccc2ccc(C3(F)CCC4(CC3)CN(C(=O)[C@H]3C[C@@](C)(O)C3)C4)nc21 [Example 341, (7-Fluoro-7-(1-methyl-1H-pyrrolo[2,3-b]pyridin-6-yl)-2-azaspiro[3.5]nonan-2-yl)((1s,3s)-3-hydroxy-3-methylcyclobutyl)methanone]	0.101 µM
COC1(c2ccccc2)CCC2(CC1)CN(C(=O)[C@H]1C[C@@](C)(O)C1)C2 [Example 342, ((1s,3s)-3-Hydroxy-3-methylcyclobutyl)(7-methoxy-7-phenyl-2-azaspiro[3.5]nonan-2-yl)methanone]	0.04 µM
COC1(c2ccccc2C)CCC2(CC1)CN(C(=O)[C@H]1C[C@@](C)(O)C1)C2 [Example 343, ((1s,3s)-3-Hydroxy-3-methylcyclobutyl)(7-methoxy-7-(o-tolyl)-2-azaspiro[3.5]nonan-2-yl)methanone]	0.016 µM
COC1(c2cc(C)cc(C)c2)CCC2(CC1)CN(C(=O)[C@H]1C[C@@](C)(O)C1)C2 [Example 344, (7-(3,5-Dimethylphenyl)-7-methoxy-2-azaspiro[3.5]nonan-2-yl)((1s,3s)-3-hydroxy-3-methylcyclobutyl)methanone]	0.00084 µM
Cn1cnc(-c2cccc(C3CCC4(CC3)CN(C(=O)[C@H]3C[C@@](C)(O)C3)C4)c2)c1 [Example 345, ((1s,3s)-3-Hydroxy-3-methylcyclobutyl)(7-(3-(1-methyl-1H-imidazol-4-yl)phenyl)-2-azaspiro[3.5]nonan-2-yl)methanone]	0.187 µM
C[C@]1(O)C[C@@H](C(=O)N2CC3(CCC(c4ccc(-n5cccn5)cc4)CC3)C2)C1 [Example 346, (7-(4-(1H-Pyrazol-1-yl)phenyl)-2-azaspiro[3.5]nonan-2-yl)((1s,3s)-3-hydroxy-3-methylcyclobutyl)methanone]	0.295 µM
C[C@]1(O)C[C@@H](C(=O)N2CC3(CCC(c4cccc(-n5cccn5)c4)CC3)C2)C1 [Example 347, (7-(3-(1H-Pyrazol-1-yl)phenyl)-2-azaspiro[3.5]nonan-2-yl)((1s,3s)-3-hydroxy-3-methylcyclobutyl)methanone]	0.056 µM
Cc1cc(F)cc(C2CCC3(CC2)CN(C(=O)[C@H]2C[C@@](C)(O)C2)C3)c1 [Example 352, (7-(3-Fluoro-5-methylphenyl)-2-azaspiro[3.5]nonan-2-yl)((1s,3s)-3-hydroxy-3-methylcyclobutyl)methanone]	0.022 µM
Cc1cc(C2CCC3(CC2)CN(C(=O)[C@H]2C[C@@](C)(O)C2)C3)ccc1F [Example 353, (7-(4-Fluoro-3-methylphenyl)-2-azaspiro[3.5]nonan-2-yl)((1s,3s)-3-hydroxy-3-methylcyclobutyl)methanone]	0.018 µM
Cc1ccc(F)c(C2CCC3(CC2)CN(C(=O)[C@H]2C[C@@](C)(O)C2)C3)c1 [Example 354, (7-(2-Fluoro-5-methylphenyl)-2-azaspiro[3.5]nonan-2-yl)((1s,3s)-3-hydroxy-3-methylcyclobutyl)methanone]	0.02 µM
Cc1cccc(C2CCC3(CC2)CN(C(=O)[C@H]2C[C@@](C)(O)C2)C3)c1F [Example 355, (7-(2-Fluoro-3-methylphenyl)-2-azaspiro[3.5]nonan-2-yl)((1s,3s)-3-hydroxy-3-methylcyclobutyl)methanone]	0.039 µM
Cc1cccc(F)c1C1CCC2(CC1)CN(C(=O)[C@H]1C[C@@](C)(O)C1)C2 [Example 356, (7-(2-Fluoro-6-methylphenyl)-2-azaspiro[3.5]nonan-2-yl)((1s,3s)-3-hydroxy-3-methylcyclobutyl)methanone]	0.015 µM
Cc1cc(F)ccc1C1CCC2(CC1)CN(C(=O)[C@H]1C[C@@](C)(O)C1)C2 [Example 357, (7-(4-Fluoro-2-methylphenyl)-2-azaspiro[3.5]nonan-2-yl)((1s,3s)-3-hydroxy-3-methylcyclobutyl)methanone]	0.029 µM
Cc1ccc(F)cc1C1CCC2(CC1)CN(C(=O)[C@H]1C[C@@](C)(O)C1)C2 [Example 358, (7-(5-Fluoro-2-methylphenyl)-2-azaspiro[3.5]nonan-2-yl)((1s,3s)-3-hydroxy-3-methylcyclobutyl)methanone]	0.029 µM
Cc1c(F)cccc1C1CCC2(CC1)CN(C(=O)[C@H]1C[C@@](C)(O)C1)C2 [Example 359, (7-(3-Fluoro-2-methylphenyl)-2-azaspiro[3.5]nonan-2-yl)((1s,3s)-3-hydroxy-3-methylcyclobutyl)methanone]	0.018 µM
CCOc1cc(C2CCC3(CC2)CN(C(=O)[C@H]2C[C@@](C)(O)C2)C3)ccc1C [Example 360, (7-(3-Ethoxy-4-methylphenyl)-2-azaspiro[3.5]nonan-2-yl)((1s,3s)-3-hydroxy-3-methylcyclobutyl)methanone]	0.036 µM
